# pKi: −log10 of the molar value. Entries after “also recorded” stand apart in the source; their conditions may differ. Like-named read-outs stand apart in the source and are kept apart here.
# Legend:
# CB2 receptor [1] = biological target: T1, CB2 receptor (Homo sapiens, UniProt P34972); assay: cell-based LANCE cAMP assay in CHO cells stably expressing CB2
# RAW 264.7 cells [2] = assay: RANKL-induced osteoclast formation assay; settings: 5 days; for inhibition rate of osteoclast formation: RANKL 15 ng/mL; for inhibitory activity on RANKL-induced osteoclast formation: RAW 264.7, RANKL 15 ng/mL
# RAW 264.7 cells [3] = assay: MTT cytotoxicity assay on osteoclast precursors; type: cell-based, mouse; settings: for cell viability versus vehicle control: 1.25 and 2.5 µM; for cell viability: 5 and 10 µM
# CB1 receptor = CB1 receptor (Homo sapiens, UniProt P21554); assay: [3H]CP-55,940 radioligand competition binding assay, CB1; settings: read-out: Ki (CB1); [3H]CP-55,940 competition, CB1 membrane protein
# CB2 receptor [4] = biological target: T1, CB2 receptor; assay: [3H]CP-55,940 radioligand competition binding assay, CB2
# T1 sequence (P34972 whole entry): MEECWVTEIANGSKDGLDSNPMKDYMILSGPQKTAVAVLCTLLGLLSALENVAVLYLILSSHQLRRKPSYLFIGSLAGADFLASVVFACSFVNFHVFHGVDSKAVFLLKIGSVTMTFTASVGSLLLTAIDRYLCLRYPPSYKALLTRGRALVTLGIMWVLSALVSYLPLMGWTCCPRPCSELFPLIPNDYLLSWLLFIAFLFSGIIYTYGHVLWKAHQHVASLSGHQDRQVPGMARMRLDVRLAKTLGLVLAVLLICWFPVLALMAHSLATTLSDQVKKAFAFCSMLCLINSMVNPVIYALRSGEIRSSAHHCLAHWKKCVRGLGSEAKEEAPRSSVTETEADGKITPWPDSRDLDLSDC
# CB1 receptor, sequence (P21554 whole entry): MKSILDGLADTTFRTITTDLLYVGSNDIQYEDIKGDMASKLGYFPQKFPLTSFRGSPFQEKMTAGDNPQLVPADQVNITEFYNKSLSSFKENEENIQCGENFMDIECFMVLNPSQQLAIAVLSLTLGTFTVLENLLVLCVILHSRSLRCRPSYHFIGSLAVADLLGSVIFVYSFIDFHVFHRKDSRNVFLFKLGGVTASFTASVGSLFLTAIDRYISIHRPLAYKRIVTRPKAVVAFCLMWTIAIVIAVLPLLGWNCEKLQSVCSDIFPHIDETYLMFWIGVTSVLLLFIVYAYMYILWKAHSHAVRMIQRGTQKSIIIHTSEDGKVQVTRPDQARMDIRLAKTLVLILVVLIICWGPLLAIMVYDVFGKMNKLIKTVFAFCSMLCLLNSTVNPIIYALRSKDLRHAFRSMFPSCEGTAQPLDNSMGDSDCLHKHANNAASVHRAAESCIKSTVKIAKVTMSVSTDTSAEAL
compound,measurement,setting,value
"CCCCCCC(C)(C)c1cc(OC)c([C@H]2C=C(CO)[C@H]3C[C@@H]2C3(C)C)c(OC)c1 (stereo in doubt) [HU308, reference compound]",CB2 functional activity,CB2 receptor [1]; LANCE cAMP assay,agonists
"CCCCCCC(C)(C)c1ccc([C@@H]2C[C@H](O)CC[C@H]2CCCO)c(O)c1 [CP55940, reference compound]",CB2 functional activity,CB2 receptor [1],agonists
"CCN(CC)c1ccc(CN(c2ccc(C)cc2)S(=O)(=O)c2ccc(OC)cc2)cc1 [Compound 57, N-(4-(Diethylamino)benzyl)-4-methoxy-N-(p-tolyl)benzenesulfonamide]",inhibition rate of osteoclast formation,RAW 264.7 cells [2]; 0.1 µM,strongest inhibition activity
same,inhibition rate of osteoclast formation,RAW 264.7 cells [2]; 1 µM,good inhibition activity
same,inhibitory activity on RANKL-induced osteoclast formation,RAW 264.7 cells [2],potent inhibitory activity; also recorded: inhibit RANKL-induced osteoclastogenesis in a dose-dependent manner
same,effect on cell viability,"RAW 264.7 cells [3]; 5 µM, 3 days, MTT",only slight effect on cell viability
same,cell viability versus vehicle control,"RAW 264.7 cells [3]; 3 days, MTT",not significantly affected
same,cell viability,"RAW 264.7 cells [3]; 3 days, MTT",only some effects on cell viability
same,cytotoxic effects on RAW 264.7,"RAW 264.7 cells [3]; cell viability test, overall",very low cytotoxic effects
same,CB2 functional activity,CB2 receptor [1]; LANCE cAMP assay,inverse agonists
"CCN(CC)c1ccc(CN(c2ccc(Cl)cc2)S(=O)(=O)c2ccc(OC)cc2)cc1 [Compound 48, N-(4-Chlorophenyl)-N-(4-(diethylamino)benzyl)-4-methoxybenzenesulfonamide]",inhibition rate of osteoclast formation,RAW 264.7 cells [2]; 1 µM,good inhibition activity
same,inhibitory activity on RANKL-induced osteoclast formation,RAW 264.7 cells [2],inhibit RANKL-induced osteoclastogenesis in a dose-dependent manner; also recorded: potent inhibitory activity
same,cell viability versus vehicle control,"RAW 264.7 cells [3]; 3 days, MTT",not significantly affected
same,cell viability,"RAW 264.7 cells [3]; 3 days, MTT",only some effects on cell viability
same,CB2 functional activity,CB2 receptor [1]; LANCE cAMP assay,inverse agonists
"CCN(CC)c1ccc(CN(C(=O)Cc2ccc(Cl)cc2)c2ccc(Cl)cc2)cc1 [Compound 52, N,2-bis(4-Chlorophenyl)-N-(4-(diethylamino)benzyl)acetamide]",pKi,CB1 receptor,< 4.70
"CCN(CC)c1ccc(CN([C@]23C[C@H]4C[C@H](C[C@H](C4)C2)C3)S(=O)(=O)c2cccc(C)c2)cc1 [Compound 25, N-((3s,5s,7s)-Adamantan-1-yl)-N-(4-(diethylamino)benzyl)-3-methylbenzenesulfonamide]",pKi,CB2 receptor [4],7.60
same,inhibitory activity on RANKL-induced osteoclast formation,RAW 264.7 cells [2],inhibit RANKL-induced osteoclastogenesis in a dose-dependent manner; also recorded: potent inhibitory activity
"CCN(CC)c1ccc(CN(c2ccc(C)cc2)S(=O)(=O)c2ccccc2)cc1 [Compound 54, N-(4-(Diethylamino)benzyl)-N-(p-tolyl)benzenesulfonamide]",CB2 functional activity,CB2 receptor [1]; LANCE cAMP assay,inverse agonists
"CCN(CC)c1ccc(CN([C@]23C[C@H]4C[C@H](C[C@H](C4)C2)C3)S(=O)(=O)c2ccc(F)cc2)cc1 [Compound 21, N-((3s,5s,7s)-Adamantan-1-yl)-N-(4-(diethylamino)benzyl)-4-fluorobenzenesulfonamide]",CB2 functional activity,CB2 receptor [1]; LANCE cAMP assay,inverse agonists
"Cc1ccc(Cn2nc(C(=O)NC3C4(C)CCC(C4)C3(C)C)cc2-c2ccc(Cl)c(C)c2)cc1 (stereo not drawn) [Compound 5, SR144528, reference compound]",CB2 functional activity,CB2 receptor [1],inverse agonists
